Source: ChEMBL document CHEMBL4000220, “Optimization of spirocyclic proline tryptophan hydroxylase-1 inhibitors” (Bioorg Med Chem Lett, 2017)

Key:
Mus musculus [1] = experiment: In vivo inhibition of TPH1 in mouse assessed as reduction in 5-HT level in intestinal mucosa at 50 mg/kg, po administered daily as single dose relative to control; assay type: functional
Mus musculus [2] = experiment: In vivo inhibition of TPH1 in mouse assessed as reduction in 5-HT level in intestinal mucosa at 10 mg/kg, po administered daily as single dose relative to control; assay type: functional
Mus musculus [3] = experiment: Prodrug activation in mouse assessed as (S)-8-(2-amino-6-((R)-1-(3'-tert-butyl-5-chlorobiphenyl-2-yl)-2,2,2-trifluoroethoxy)pyrimidin-4-yl)-2,8-diazaspiro[4.5]decane-3-carboxylic acid formation at 10 to 50 mg/kg, po administered as single dose; assay type: organism-based; details: in vivo
Rattus norvegicus [4] = experiment: Half life in rat assessed as (S)-8-(2-amino-6-((R)-1-(3',4'-dimethyl-3-(3-methyl-1H-pyrazol-1-yl)biphenyl-4-yl)-2,2,2-trifluoroethoxy)pyrimidin-4-yl)-2,8-diazaspiro[4.5]decane-3-carboxylic acid level at 1 mg/kg, iv; assay type: ADME, organism-based; details: in vivo
Rattus norvegicus [5] = experiment: Cmax in rat assessed as (S)-8-(2-amino-6-((R)-1-(3',4'-dimethyl-3-(3-methyl-1H-pyrazol-1-yl)biphenyl-4-yl)-2,2,2-trifluoroethoxy)pyrimidin-4-yl)-2,8-diazaspiro[4.5]decane-3-carboxylic acid level at 25 mg/kg, po; assay type: ADME, organism-based; design: dose 25 mg/kg, route oral; details: in vivo
Rattus norvegicus [6] = experiment: AUC (0 to last) in rat assessed as (S)-8-(2-amino-6-((R)-1-(3',4'-dimethyl-3-(3-methyl-1H-pyrazol-1-yl)biphenyl-4-yl)-2,2,2-trifluoroethoxy)pyrimidin-4-yl)-2,8-diazaspiro[4.5]decane-3-carboxylic acid level at 25 mg/kg, po; assay type: ADME, organism-based; design: dose 25 mg/kg, time 0 - last, route oral; details: in vivo
Mus musculus [7] = experiment: Prodrug activation in mouse assessed as (S)-8-(2-amino-6-((R)-1-(5-chloro-3'-(methylsulfonyl)biphenyl-2-yl)-2,2,2-trifluoroethoxy)pyrimidin-4-yl)-2,8-diazaspiro[4.5]decane-3-carboxylic acid formation at 10 to 50 mg/kg, po administered as single dose; assay type: organism-based; details: in vivo
Mus musculus [8] = experiment: Drug level in mouse treated with (S)-ethyl 8-(2-amino-6-((R)-1-(5-chloro-3'-methoxybiphenyl-2-yl)-2,2,2-trifluoroethoxy)pyrimidin-4-yl)-2,8-diazaspiro[4.5]decane-3-carboxylate at 10 to 50 mg/kg, po administered as single dose; assay type: ADME, organism-based; details: in vivo
[9] = molecular target: T1, Tryptophan 5-hydroxylase 1 (Homo sapiens, UniProt P17752)
T1 sequence (P17752 whole entry): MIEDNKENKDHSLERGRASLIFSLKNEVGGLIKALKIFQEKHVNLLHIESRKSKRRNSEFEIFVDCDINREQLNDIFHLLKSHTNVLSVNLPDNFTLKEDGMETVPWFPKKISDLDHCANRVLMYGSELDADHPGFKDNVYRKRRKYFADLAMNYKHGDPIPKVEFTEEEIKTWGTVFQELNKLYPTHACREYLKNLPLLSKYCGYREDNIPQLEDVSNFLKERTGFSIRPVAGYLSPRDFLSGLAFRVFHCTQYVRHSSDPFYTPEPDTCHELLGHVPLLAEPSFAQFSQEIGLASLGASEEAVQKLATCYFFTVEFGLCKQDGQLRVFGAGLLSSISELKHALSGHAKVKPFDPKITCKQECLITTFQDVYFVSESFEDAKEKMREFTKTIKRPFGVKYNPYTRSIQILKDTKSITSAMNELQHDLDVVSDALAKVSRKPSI
Description: Inhibition of TPH1 (unknown origin)

Mus musculus [10] = experiment: Prodrug activation in mouse assessed as (S)-8-(2-amino-6-((R)-1-(5-chloro-3'-methoxybiphenyl-2-yl)-2,2,2-trifluoroethoxy)pyrimidin-4-yl)-2,8-diazaspiro[4.5]decane-3-carboxylic acid formation at 10 to 50 mg/kg, po administered as single dose; assay type: organism-based; details: in vivo
Mus musculus [11] = experiment: Prodrug activation in mouse assessed as (S)-8-(2-amino-6-((R)-1-(5-chloro-3'-sulfamoylbiphenyl-2-yl)-2,2,2-trifluoroethoxy)pyrimidin-4-yl)-2,8-diazaspiro[4.5]decane-3-carboxylic acid formation at 10 to 50 mg/kg, po administered as single dose; assay type: organism-based; details: in vivo
Mus musculus [12] = experiment: Prodrug activation in mouse assessed as (S)-8-(2-amino-6-((R)-1-(5-chloro-3'-fluorobiphenyl-2-yl)-2,2,2-trifluoroethoxy)pyrimidin-4-yl)-2,8-diazaspiro[4.5]decane-3-carboxylic acid formation at 10 to 50 mg/kg, po administered as single dose; assay type: organism-based; details: in vivo

Compound	inhibition in vivo at 50 mg/kg (Mus musculus [1]) [%]	inhibition in vivo at 10 mg/kg (Mus musculus [2]) [%]	further results
CCOC(=O)[C@@H]1CC2(CCN(c3cc(O[C@H](c4ccc(Cl)cc4-c4cccc(C(C)(C)C)c4)C(F)(F)F)nc(N)n3)CC2)CN1	59	33	Drug metabolism (Mus musculus [3]): Metabolite_Detected
CCOC(=O)[C@@H]1CC2(CCN(c3cc(O[C@H](c4ccc(-c5ccc(C)c(C)c5)cc4-n4ccc(C)n4)C(F)(F)F)nc(N)n3)CC2)CN1	70	–	t1/2 (Rattus norvegicus [4]): 3.6 h; Cmax (Rattus norvegicus [5]): 240 ng/mL; AUClast (Rattus norvegicus [6]): 1634 ng·h/mL
CCOC(=O)[C@@H]1CC2(CCN(c3cc(O[C@H](c4ccc(Cl)cc4-c4cccc(S(C)(=O)=O)c4)C(F)(F)F)nc(N)n3)CC2)CN1	38	–	Drug metabolism (Mus musculus [7]): Metabolite_Detected
COc1cccc(-c2cc(Cl)ccc2[C@@H](Oc2cc(N3CCC4(CC3)CN[C@H](C(=O)O)C4)nc(N)n2)C(F)(F)F)c1	–	–	Drug metabolism (Mus musculus [8]): Metabolite_Detected; IC50 [9]: 19 nM
CCOC(=O)[C@@H]1CC2(CCN(c3cc(O[C@H](c4ccc(Cl)cc4-c4cccc(OC)c4)C(F)(F)F)nc(N)n3)CC2)CN1	46	19	Drug metabolism (Mus musculus [10]): Metabolite_Detected
CCOC(=O)[C@@H]1CC2(CCN(c3cc(O[C@H](c4ccc(Cl)cc4-c4cccc(S(N)(=O)=O)c4)C(F)(F)F)nc(N)n3)CC2)CN1	42	15	Drug metabolism (Mus musculus [11]): Metabolite_Detected
CCOC(=O)[C@@H]1CC2(CCN(c3cc(O[C@H](c4ccc(Cl)cc4-c4cccc(F)c4)C(F)(F)F)nc(N)n3)CC2)CN1	61	38	Drug metabolism (Mus musculus [12]): Metabolite_Detected
